From US6627441B1, “Increasing levels of growth regulator and/or water stress during embryo development” (priority 1998, dated 2003) come the findings set out here.

What all share (assay type): cell-based
In experiment [1] the test system is white spruce somatic embryos. Briefly: PEG replacement during development, maturation frequency (Example 6). As to conditions: treatment 2: PEG constant, lactose added from the third week; versus PEG control; FIG. 2. The method, then: (§1) This experiment was carried out to observe the effect of replacing the non-permeating water stress with a permeating water stress during development. Thus, immature somatic embryos from suspension culture were precultured in 1/20 strength hormone medium for one week then transferred to maturation medium containing 3% sucrose, 20 μM ABA and adjusted to 290 mmol/kg with PEG. They were transferred to fresh medium weekly in which the osmoticum and ABA was increased. For the control (treatment 1) the PEG concentration was increased (as outlined in Example 4, treatment 6). In treatment 2, the PEG remained constant and water potential was increased by adding lactose (treatment 2). In treatment 3, PEG was increased after the first week, then lactose was added at the third and fourth weeks, and in the fifth week PEG was removed and replaced completely with lactose. Treatment 4 was the same as treatment 3, except that sucrose was used in place of lactose. Treatment 5 was similar to treatment 3, except that PEG was replaced with lactose earlier so that PEG was replaced totally by lactose by the fourth week. Total development time was six weeks.
Each treatment comprised nine replicates. The number of embryos per treatment were scored and means prepared. […] The trend was that as PEG was replaced by permeating osmotica, the maturation frequency declined slightly. […]

Experiment [2] deals with Douglas fir somatic embryos. The experiment can be described thus: Douglas fir somatic embryogenesis (Example 11). As to conditions: replacing PEG at week 5 or week 6; compared with PEG being maintained. The method, then: Douglas fir may be cultured using sucrose at 1-3% (30-90 mM), however, other sugars may be used at the same concentrations. Maintenance cultures usually contain the sugar at about 1%. […] Douglas fir embryogenic tissue was induced from developing seed. Embryos contained in megametophytes were induced and maintained on TX maintenance medium having 1% sucrose. This medium contained 0.2 g/L glutamine and 0.2 g/L casein hydrolysate. Selected embryogenic tissue was subcultured biweekly per petri dish. Medium was solidified with 2.4 g/L PHYTAGEL™. This medium contained 9 μM 2,4-D and 4.5 μM BA. Liquid suspension cultures were maintained in flasks containing 50 mL liquid maintenance medium Liquid cultures were subcultured weekly. For maturation, the embryogenic suspension was first precultured in liquid medium without growth regulators, and subcultured weekly. The water potential of the maintenance cultures and precultures remained below 150 mmol/kg. After one or two weeks of preculture, 1 to 2 g of filtered tissue was resuspended in 10 mL fresh medium and 0.75 mL of the new suspension was pipetted onto the solid maturation medium. Maturation medium contained calcium chloride at 105 mg/L, and ammonium nitrate was included at 400 mg/L. Glutamine was used at 0.8 g/L for the first week then reduced to 0.1 g/L thereafter. Casein hydrolysate was maintained at 0.2 g/L. The sugar was increased to 2-3% and the medium was solidified with Phytagel at 2.8 to 3.4 g/L. ABA was added into the medium after filter sterilization. The maturation medium also contained PEG. The ABA and water potential were raised following the schedule in the following table.
In some instances, the PEG was reduced and the water potential made up to the desired level using lactose at 0% in the first week, 1% in week 2, 4% in weeks 3 and 4, 5% in week 5, and 6% in week 6. Although this allowed a firmer gel to set than otherwise would occur with PEG alone, it may not provide any other benefit over full PEG (see, for example, Table 8), particularly if liquid culture medium is used. […] The embryos were desiccated and stored in a freezer as described for spruce, or germinated directly without desiccation. For germination, embryos were placed on half-strength basal medium containing 0.4 g/L calcium nitrate, 0.2 g/L ammonium nitrate, no hormones and 2% sucrose and 0.6% agar. These were grown in the light.

Experiment [3] relates to somatic seedlings of white spruce. Briefly: Germination and shoot development after replacing PEG with alternative osmotica (Example 8). Conditions: for shoot development frequency of somatic seedlings: after 4-5 weeks growth. The method, then:
as §1
White spruce somatic embryos were produced using all treatments described in Example 6 (replacement of PEG with sucrose or lactose). […] Embryos were desiccated for two weeks, then rehydrated and visually selected for subsequent transfer to fresh medium. The embryos from all treatments germinated to produce root and epicotyl elongation (i e., 100% germination). Subsequent growth differed amongst the treatments. After four to five weeks growth, 87% of somatic seedlings from treatment 1 had visible new shoot growth (new needles). All other treatments had much lower shoot emergence frequencies.

Experiment [4] concerns white spruce somatic embryos. Briefly: Effect of water stress and ABA on somatic embryo moisture contents (Example 4). As to conditions: treatment 2: mannitol 290, 400, 540 mmol/kg with ABA 20, 30, 40 μM; six weeks. The method, then:
Water potentials were measured for liquid media containing various osmotica at a range of concentrations, which were plotted on a curve. Determinations were made using a vapour pressure osmometer (Wescor). Moisture content determinations were done using methods described previously by Attree et al. (U.S. Pat. No. 5,464,769).
Embryos were cultured on medium containing 3% sucrose and ABA, with additional osmoticum adjusted to vary water potentials, as shown in Table 4.
Embryos were cultured for six weeks and moisture contents determined. Determinations for each treatment were made weekly, with three replicates per treatment. 50 embryos per replicate were used. In some instances, particularly for the control with low osmoticum, insufficient embryos were produced. In these cases, the minimum number of embryos used per replicate was thirty. For weeks 0 to 2, the embryos were too small to be used for moisture content determinations, so whole tissue was used instead.

As for `OC[C@H]1O[C@@H](O[C@H]2[C@H](O)[C@@H](O)C(O)O[C@@H]2CO)[C@H](O)[C@@H](O)[C@H]1O` (stereo partly shown) [lactose], the maturation frequency result in experiment [1] was “slight decline”. Further, in experiment [2], the embryo development result is reported as “very good results”. The “shoot development frequency of somatic seedlings” value in experiment [3] (Treatment 2: 6.6% lactose, partial PEG replacement) is 1.5%; in experiment [3] (Treatment 3: 10% lactose, mid replacement), 76.5%; in experiment [3] (Treatment 5: 10% lactose early replacement), 49.2%. Besides, the “appearance of embryos before desiccation” value in experiment [3] (treatment 5 of Example 6 (PEG replaced early with lactose)) was “very slight splitting of the root cap region”.

Regarding `OC[C@H]1O[C@@](CO)(O[C@H]2O[C@H](CO)[C@@H](O)[C@H](O)[C@H]2O)[C@@H](O)[C@@H]1O` [sucrose], the embryo development result in experiment [2] is “very good results”. The “shoot development frequency of somatic seedlings” value in experiment [3] (Treatment 4: 13% sucrose mid replacement) is reported as 1.6%. In addition, in experiment [3] (treatment 4 of Example 6 (PEG replaced with sucrose)), the “appearance of embryos before desiccation” value is on record as “very slight splitting of the root cap region”.

Take `OC[C@@H](O)[C@@H](O)[C@H](O)[C@H](O)CO` [mannitol]: the greening of embryos entry in experiment [4] was “greening was prevented”.
